Laboratory results as given in PubChem BioAssay (NCI).
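Step 1: Grow cells in 96-well plates. Step 2: Expose to compound for 48 hours at 5 concentrations. Step 3: Interpolate endpoints linearly; if unreached, use highest concentration. TGI marks complete inhibition of growth.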

Tests used:
Assay in all cases: NCI anticancer screen, dose series, 48 h
K-562 leukemia = system: K-562 leukemia
NCI-H23 lung = system: NCI-H23 lung
OVCAR-4 ovarian = system: OVCAR-4 ovarian
HT29 colon = system: HT29 colon
SN12C renal = system: SN12C renal
MCF7 breast = system: MCF7 breast
TK-10 renal = system: TK-10 renal
SW-620 colon = system: SW-620 colon
PC-3 prostate = system: PC-3 prostate
HOP-62 NSCLC = system: HOP-62 NSCLC
OVCAR-3 ovarian = system: OVCAR-3 ovarian
MALME-3M melanoma = system: MALME-3M melanoma
COLO 205 colon = system: COLO 205 colon
SF-295 CNS = system: SF-295 CNS
MDA-N = system: MDA-N
T-47D breast = system: T-47D breast
HCT-116 colon = system: HCT-116 colon
NCI-H226 lung = system: NCI-H226 lung
HCT-15 colon = system: HCT-15 colon
A549 NSCLC = system: A549 NSCLC
NCI-H522 lung = system: NCI-H522 lung
KM12 colon = system: KM12 colon
SK-MEL-28 melanoma = system: SK-MEL-28 melanoma
DU-145 prostate = system: DU-145 prostate
SNB-75 CNS = system: SNB-75 CNS
HOP-92 NSCLC = system: HOP-92 NSCLC
HL-60(TB) leukemia = system: HL-60(TB) leukemia
UACC-62 melanoma = system: UACC-62 melanoma
SF-539 CNS = system: SF-539 CNS
SNB-19 CNS = system: SNB-19 CNS
786-0 renal = system: 786-0 renal
NCI/ADR-RES ovarian = system: NCI/ADR-RES ovarian
EKVX NSCLC = system: EKVX NSCLC
SR leukemia = system: SR leukemia
M14 melanoma = system: M14 melanoma
IGROV1 ovarian = system: IGROV1 ovarian
NCI-H460 lung = system: NCI-H460 lung
LOX IMVI melanoma = system: LOX IMVI melanoma
CAKI-1 renal = system: CAKI-1 renal
MDA-MB-435 = system: MDA-MB-435
UACC-257 melanoma = system: UACC-257 melanoma
OVCAR-8 ovarian = system: OVCAR-8 ovarian
HS 578T breast = system: HS 578T breast
U251 CNS = system: U251 CNS
ACHN renal = system: ACHN renal
SK-MEL-2 melanoma = system: SK-MEL-2 melanoma
SK-MEL-5 melanoma = system: SK-MEL-5 melanoma
A498 renal = system: A498 renal
SF-268 CNS = system: SF-268 CNS
OVCAR-5 ovarian = system: OVCAR-5 ovarian
SK-OV-3 ovarian = system: SK-OV-3 ovarian
BT-549 breast = system: BT-549 breast
MOLT-4 leukemia = system: MOLT-4 leukemia
UO-31 renal = system: UO-31 renal
HCC-2998 colon = system: HCC-2998 colon
RPMI-8226 leukemia = system: RPMI-8226 leukemia
MDA-MB-231 breast = system: MDA-MB-231 breast
RXF 393 renal = system: RXF 393 renal

For `CC1(C)OP(=O)(c2ccccc2)C=C1Sc1ccc([N+](=O)[O-])cc1[N+](=O)[O-]` (stereo unspecified), the TGI (K-562 leukemia) was 67.3 µM, the TGI (NCI-H23 lung) was > 100 µM and the TGI (OVCAR-4 ovarian) was > 100 µM. For the same molecule, the TGI (HT29 colon) was > 100 µM, the TGI (SN12C renal) was > 100 µM and the TGI (MCF7 breast) was > 100 µM. For the same molecule, the TGI (TK-10 renal) was > 100 µM, the TGI (SW-620 colon) was > 100 µM and the TGI (PC-3 prostate) was > 100 µM. For the same molecule, the TGI (HOP-62 NSCLC) was > 100 µM, the TGI (OVCAR-3 ovarian) was > 100 µM and the TGI (MALME-3M melanoma) was > 100 µM. For the same molecule, the TGI (COLO 205 colon) was > 100 µM, the TGI (SF-295 CNS) was > 100 µM and the TGI (MDA-N) was > 100 µM. For the same molecule, the TGI (T-47D breast) was > 100 µM, the TGI (HCT-116 colon) was > 100 µM and the TGI (NCI-H226 lung) was > 100 µM. The TGI (HCT-15 colon) was > 100 µM, the TGI (A549 NSCLC) was > 100 µM and the TGI (NCI-H522 lung) was 36.6 µM. For the same molecule, the TGI (KM12 colon) was > 100 µM, the TGI (SK-MEL-28 melanoma) was > 100 µM and the TGI (DU-145 prostate) was > 100 µM. For the same molecule, the TGI (SNB-75 CNS) was > 100 µM, the TGI (HOP-92 NSCLC) was > 100 µM and the TGI (HL-60(TB) leukemia) was 37.4 µM. For the same molecule, the TGI (UACC-62 melanoma) was > 100 µM, the TGI (SF-539 CNS) was > 100 µM and the TGI (SNB-19 CNS) was > 100 µM. For the same molecule, the TGI (786-0 renal) was > 100 µM, the TGI (NCI/ADR-RES ovarian) was > 100 µM and the TGI (EKVX NSCLC) was > 100 µM. The TGI (SR leukemia) was 42.9 µM, the TGI (M14 melanoma) was > 100 µM and the TGI (IGROV1 ovarian) was > 100 µM. For the same molecule, the TGI (NCI-H460 lung) was > 100 µM, the TGI (LOX IMVI melanoma) was > 100 µM and the TGI (CAKI-1 renal) was > 100 µM. The TGI (MDA-MB-435) was > 100 µM, the TGI (UACC-257 melanoma) was > 100 µM and the TGI (OVCAR-8 ovarian) was > 100 µM. The TGI (HS 578T breast) was > 100 µM, the TGI (U251 CNS) was > 100 µM and the TGI (ACHN renal) was > 100 µM. For the same molecule, the TGI (SK-MEL-2 melanoma) was > 100 µM, the TGI (SK-MEL-5 melanoma) was > 100 µM and the TGI (A498 renal) was > 100 µM. For the same molecule, the TGI (SF-268 CNS) was > 100 µM, the TGI (OVCAR-5 ovarian) was > 100 µM and the TGI (SK-OV-3 ovarian) was > 100 µM.

With `Clc1ccc(Nc2nnc(CNc3ccc(-c4nnc(Nc5ccc(Cl)cc5)s4)cc3)s2)cc1` the TGI (K-562 leukemia) was > 100 µM, the TGI (NCI-H23 lung) was > 100 µM and the TGI (OVCAR-4 ovarian) was > 100 µM. For the same molecule, the TGI (HT29 colon) was 24.4 µM, the TGI (SN12C renal) was > 100 µM and the TGI (MCF7 breast) was > 100 µM. The TGI (TK-10 renal) was > 100 µM, the TGI (SW-620 colon) was > 100 µM and the TGI (PC-3 prostate) was > 100 µM. For the same molecule, the TGI (HOP-62 NSCLC) was > 100 µM, the TGI (MALME-3M melanoma) was > 100 µM and the TGI (COLO 205 colon) was 45.3 µM. For the same molecule, the TGI (SF-295 CNS) was 84.3 µM, the TGI (MDA-N) was 58.1 µM and the TGI (HCT-116 colon) was 30.8 µM. The TGI (NCI-H226 lung) was > 100 µM, the TGI (HCT-15 colon) was > 100 µM and the TGI (A549 NSCLC) was > 100 µM. The TGI (NCI-H522 lung) was 43.2 µM, the TGI (KM12 colon) was 36.6 µM and the TGI (SK-MEL-28 melanoma) was > 100 µM. For the same molecule, the TGI (DU-145 prostate) was > 100 µM, the TGI (BT-549 breast) was > 100 µM and the TGI (MOLT-4 leukemia) was > 100 µM. For the same molecule, the TGI (SNB-75 CNS) was > 100 µM, the TGI (HOP-92 NSCLC) was > 100 µM and the TGI (UACC-62 melanoma) was 64.9 µM. The TGI (UO-31 renal) was 44.2 µM, the TGI (SNB-19 CNS) was > 100 µM and the TGI (786-0 renal) was 75.1 µM. For the same molecule, the TGI (NCI/ADR-RES ovarian) was > 100 µM, the TGI (EKVX NSCLC) was > 100 µM and the TGI (HCC-2998 colon) was 48.9 µM. For the same molecule, the TGI (M14 melanoma) was 58.4 µM, the TGI (RPMI-8226 leukemia) was > 100 µM and the TGI (IGROV1 ovarian) was > 100 µM. For the same molecule, the TGI (NCI-H460 lung) was > 100 µM, the TGI (CAKI-1 renal) was > 100 µM and the TGI (MDA-MB-231 breast) was > 100 µM. For the same molecule, the TGI (MDA-MB-435) was > 100 µM, the TGI (UACC-257 melanoma) was > 100 µM and the TGI (U251 CNS) was > 100 µM. The TGI (ACHN renal) was > 100 µM, the TGI (SK-MEL-2 melanoma) was 67.6 µM and the TGI (SK-MEL-5 melanoma) was 79.3 µM. For the same molecule, the TGI (A498 renal) was > 100 µM, the TGI (RXF 393 renal) was > 100 µM and the TGI (SF-268 CNS) was > 100 µM. The TGI (OVCAR-5 ovarian) was > 100 µM and the TGI (SK-OV-3 ovarian) was > 100 µM.
